Results on two molecules are retold here after the RepoRT retention time repository (doi:10.1016/j.foodchem.2021.129757).

The structures appear in SMILES notation.

What all share (conditions): stereoisomer not certain
A short description of data set [1]: RP, 100 × 0.5 mm, 2.7 µm, 45 °C, 0.015 mL/min, estimated dead time 0.83 min; A: water + 0.9% formic acid; B: acetonitrile + 0.9% formic acid; gradient (min/%B) 0/1 0.5/1 4/95 4.5/1 5/1.
A short description of data set [2]: RP, 50 × 0.5 mm, 2.7 µm, 35 °C, 0.01 mL/min, estimated dead time 0.62 min; A: water + 0.1% formic acid, pH 3; B: acetonitrile + 0.1% formic acid, pH 3; gradient (min/%B) 0/5 12/95 14/95 16/5.
Data set [3] is described as follows: Other, Phenomenex Kinetex PFP, 100 × 4.6 mm, 5 µm, 45 °C, 0.6 mL/min, estimated dead time 1.8 min; A: water + 0.1% trifluoroacetic acid, pH 2; B: methanol; gradient (min/%B) 0/40 20/72 21/40.
Data set [4] is described as follows: RP, 150 × 2.1 mm, 2.6 µm, 40 °C, 0.35 mL/min, estimated dead time 0.94 min; A: water + 0.1% formic acid, pH 3; B: acetonitrile + 0.1% formic acid, pH 3; gradient (min/%B) 0/0 1/0 12.5/100 14/100 14.2/0 15/0.
Data set [5] can be described thus: RP, 150 × 2.1 mm, 2.6 µm, 40 °C, 0.35 mL/min, estimated dead time 0.94 min; A: water + 0.1% formic acid, pH 3; B: acetonitrile + 0.1% formic acid, pH 3; gradient (min/%B) 0/0 1/5 7/45 8.5/80 10.5/80 11/5 12/5.
Data set [6] in a line: RP, Phenomenex Synergi Hydro-RP, 150 × 2 mm, 4 µm, 30 °C, 0.5 mL/min, estimated dead time 0.6 min; A: water + 0.1% formic acid, pH 3; B: acetonitrile + 0.1% formic acid, pH 3; gradient (min/%B) 0/5 1/5 35/45 40/100 45/100.
Data set [7] in a line: RP, Phenomenex Luna Omega Polar C18, 100 × 2.1 mm, 1.6 µm, 40 °C, 0.5 mL/min, estimated dead time 0.44 min; A: water + 0.5% formic acid; B: acetonitrile + 0.5% formic acid; gradient (min/%B) 0/5 3/50 3.1/100 5/100 5.1/5 7/5.
Data set [8] in a line: RP, Phenomenex Luna C18, 150 × 4.6 mm, 3 µm, 25 °C, 0.5 mL/min, estimated dead time 3.2 min; A: water + 0.1% formic acid, pH 3; B: acetonitrile + 0.1% formic acid, pH 3; gradient (min/%B) 0/0 30/30 35/40 50/80 52/80 60/0 65/0.
Data set [9] is described as follows: RP, Merck LiChrospher RP-18, 250 × 4 mm, 5 µm, 35 °C, 0.3 mL/min, estimated dead time 6.7 min; A: water + 0.5% formic acid; B: acetonitrile + 0.5% formic acid; gradient (min/%B) 0/5 10/5 30/15 45/20 65/20 95/54 110/63 115/5 135/5.
Data set [10] can be described thus: RP, Phenomenex Luna Omega Polar C18, 100 × 2.1 mm, 1.6 µm, 40 °C, 0.5 mL/min, estimated dead time 0.44 min; A: water + 0.1% formic acid + 10 mM ammonium formate; B: acetonitrile; gradient (min/%B) 0/5 8/20 10/100 12/100 12.1/5 14/5.
Data set [11] in a line: RP, Waters ACQUITY UPLC HSS T3, 100 × 2.1 mm, 1.8 µm, 30 °C, 0.4 mL/min, estimated dead time 0.55 min; A: water + 0.1% formic acid, pH 3; B: acetonitrile + 0.1% formic acid, pH 3; gradient (min/%B) 0/0 2/0 15/100 22/100 22.1/0 26/0.
Data set [12] is described as follows: RP, Agilent ZORBAX Eclipse XDB-C18, 100 × 2.1 mm, 1.8 µm, 50 °C, 0.4 mL/min, estimated dead time 0.55 min; A: water + 0.1% formic acid, pH 3; B: methanol + 0.1% formic acid, pH 3; gradient (min/%B) 0/2 10/100 14.5/100 14.51/2 16.5/2.
The nature of data set [13]: RP, Waters ACQUITY UPLC BEH C18, 100 × 2.1 mm, 1.7 µm, 65 °C, 0.4 mL/min, estimated dead time 0.55 min; A: water + 0.1% formic acid, pH 3; B: 80% acetonitrile + 20% acetone + 0.1% formic acid, pH 3; gradient (min/%B) 0/0 5/100 5.5/0 6/0.
The nature of data set [14]: RP, Waters ACQUITY UPLC BEH Shield RP18, 100 × 2.1 mm, 1.7 µm, 30 °C, 0.6 mL/min, estimated dead time 0.37 min; A: water + 0.1% formic acid, pH 3; B: acetonitrile + 0.1% formic acid, pH 3; gradient (min/%B) 0/0 2/0 7/10 22/95 22.1/0 26/0.
Data set [15] is described as follows: RP, Waters ACQUITY UPLC BEH Shield RP18, 150 × 2.1 mm, 1.7 µm, 40 °C, 0.4 mL/min, estimated dead time 0.83 min; A: water + 0.1% formic acid, pH 3; B: acetonitrile + 0.1% formic acid, pH 3; gradient (min/%B) 0/0 30/50 31/100 37/100 37.1/0.
Data set [16] is described as follows: RP, Agilent ZORBAX RRHD Eclipse Plus C18, 50 × 2.1 mm, 1.8 µm, 30 °C, 0.4 mL/min, estimated dead time 0.28 min; A: water + 0.1% formic acid, pH 3; B: acetonitrile + 0.1% formic acid, pH 3; gradient (min/%B) 0/1 5/10 8/25 9.1/99 10/99 12/1.
Data set [17] can be described thus: RP, Agilent ZORBAX RRHD Eclipse Plus C18, 50 × 2.1 mm, 1.8 µm, 30 °C, 0.4 mL/min, estimated dead time 0.28 min; A: water + 0.1% formic acid, pH 3; B: acetonitrile + 0.1% formic acid, pH 3; gradient (min/%B) 0/1 5/10 8/25 9.1/99 10/99 12/99.
Data set [18] in a line: RP, Merck Supelco SUPELCOSIL LC-C18, 250 × 4.6 mm, 5 µm, 40 °C, 1 mL/min, estimated dead time 2.6 min; A: water + 0.1% trifluoroacetic acid, pH 2; B: acetonitrile + 0.1% trifluoroacetic acid, pH 2; gradient (min/%B) 0/5 45/35 47/75 49/35 50/5.
A short description of data set [19]: RP, Agilent InfinityLab Poroshell 120 EC-C18, 100 × 3 mm, 2.7 µm, 25 °C, 0.4 mL/min, estimated dead time 1.1 min; A: water + 0.1% formic acid, pH 3; B: acetonitrile + 0.1% formic acid, pH 3; gradient (min/%B) 0/5 10/25 20/40 24/90 25/90 26/5 30/5.
Data set [20] is described as follows: RP, Phenomenex Synergi Hydro-RP, 250 × 2 mm, 4 µm, 25 °C, 0.2 mL/min, estimated dead time 2.5 min; A: water + 0.1% formic acid, pH 3; B: acetonitrile + 0.1% formic acid, pH 3; gradient (min/%B) 0/0.5 7/0.5 12/12.5 25/16.3 47/35 48/65 50/65 50.1/0.5.
Data set [21] can be described thus: RP, Waters Atlantis T3, 100 × 2.1 mm, 3 µm, 40 °C, 0.3 mL/min, estimated dead time 0.73 min; A: water + 0.1% trifluoroacetic acid, pH 2; B: acetonitrile + 0.1% trifluoroacetic acid, pH 2; gradient (min/%B) 0/10 1/10 6/40 7/50 8/50 14/70 16/80 20/10 25/10.
Data set [22] can be described thus: Other, Phenomenex Kinetex PFP, 100 × 4.6 mm, 2.6 µm, 35 °C, 1.5 mL/min, estimated dead time 0.71 min; A: water + 0.1% trifluoroacetic acid, pH 2; B: acetonitrile + 0.1% trifluoroacetic acid, pH 2; gradient (min/%B) 0/1 7/7.5 14/7.6 17/10 18.5/12 20/12.5 24/30 25/90 25.1/1 32/1.
Data set [23] can be described thus: RP, Waters ACQUITY UPLC HSS T3, 100 × 2.1 mm, 50 °C; A: water + 0.1% formic acid, pH 3; B: 30% methanol + 70% acetonitrile + 0.1% formic acid, pH 3; gradient (min/%B) 0/5 1/8 2/15 3/40 4/70 4.5/100 5/100 6.4/100 6.6/5 6.8/5 7/5.

`COc1cc(/C=C/C(=O)O)ccc1O` [Ferulic acid]: the LC retention time in data set [1] was 2.44 min; in data set [2], 4.13 min; in [3] it was 7.59 min; in data set [4] it was 5.86 min; in data set [5] it was 5.86 min; in [6], 14.4 min. Moreover, the LC retention time in data set [7] is 2.51 min; in [8], 23.8 min; in data set [9] it was 61.3 min; in data set [10], 6.79 min; in data set [11], 9.48 min; in [12], 4.64 min. Moreover, the LC retention time in [13] is 2.17 min; in data set [14], 12.5 min; in data set [15], 11.2 min; in data set [16], 7.16 min; in [17], 4.67 min; in [18], 21.7 min. Besides, the LC retention time in data set [19] was 9.17 min; in [20], 32.7 min; in data set [21], 7.28 min; in data set [22] it was 20.7 min.
For `O=C(O)C=Cc1ccc(O)cc1` [p-Coumaric acid], the LC retention time in data set [1] was 2.3 min; in [2], 3.84 min; in [3], 7.01 min; in data set [7], 2.39 min; in data set [8], 21.7 min; in data set [23] it was 3.45 min. Further, the LC retention time in data set [9] is 56.2 min; in data set [10] it was 5.83 min; in data set [11], 9.24 min; in data set [12], 4.32 min; in data set [13], 1.99 min; in data set [14], 12.3 min. Further, the LC retention time was 10.8 min in [15]; 6.97 min in [16]; 6.96 min in data set [17]; 19 min in [18]; 8.4 min in data set [19]; 30.1 min in [20]. The LC retention time in data set [21] was 6.73 min; in data set [22], 17.6 min.
